Assays:
[1] = system: smoke induced COPD mice model; assay: Smoke induced COPD mice model; type: in vivo, C57BL/6 J mice
Protocol: The commercial non-filtered cigarettes containing 11 mg tar and 0.9 mg nicotine per cigarette were used in this study. Eight-week-old male C57BL/6 J mice (purchased from Shanghai Xipuer Yibikai animal Co) were divided into four groups as follows: Group 1 was the control group(NS6m), Group 2 was the animal model CS group(CS6m), Groups 3 was CS+Compound A 100 mpk group(LY100), Group 4 was CS+erythromycin group(EM100). Mice were placed in a Plexiglass chamber covered by a disposable filter. The animals received CS of 5 cigarettes/time, carried out twice per day and 5 days a week for 24 weeks. Mainstream CS was generated by an exposure system in which combustion of the cigarette was drawn into the mouse chambers via a peristaltic pump. In group 3 and 4, mice were orally administrated with Compound A (100 mg/kg) twice per day from the 12th week to 24th week. One week after the last CS exposure, animals were sacrificed by intraperitoneal injection of 10% chloral hydrate for the plasma, bronchoalveolar lavage fluid (BALF) and lung tissues collection.
The lung tissues were collected and inflated with 4% paraformaldehyde at a pressure of 25 cmH2O, fixed for 24 h in formalin, embedded with paraffin, sectioned in the sagittal plane, and stained with hematoxylin and eosin (H & E). Alveolus enlargement was quantified by measurement of the mean chord length of alveoli with Analysis software Image J (see FIGS. 5 & 6).
For the bronchoalveolar lavage fluid collection, lungs were lavaged with 1 ml of saline, and the resulting BALF was centrifuged at 3000 g for 15 minutes. Cells were washed three times and then analyzed on a ThermoFisher Countess II cytometer.

[2] = system: IL-8 expression in BEAS-2B cell; assay: LPS induced IL-8 release by BEAS-2B (ELISA); type: cell-based; details: in words; BEAS-2B
Protocol: The inhibitory effect of compounds of Examples on the IL-8 expression in BEAS-2B cell was tested using the following method. BEAS-2B was purchased from ATCC (American Type Culture Collection, Manassas, Va.). Cells were maintained in growth medium (LHC-9) and cultured at 37° C. under 5% CO2. Compounds were dissolved in 0.1% DMSO. Erythromycin was used as a positive control.
For the assessment of the effect of compounds of Examples on IL-8 expression inhibition in BEAS-2B cell line, cells were plated in 24 well plate at a density of 100,000/mL, in a final volume of 1 mL of assay medium. Cells were incubated at 37° C., 5% CO2 for 1 day. After the incubation, compounds were added at day 2 and LPS was added at day 3. A compound source plate was prepared by triplicate five-point 10-fold or 2-fold serial dilutions in DMSO, beginning at 1 mM (final top concentration of compounds of Examples in the assay was 100 μM and the DMSO was 0.1%). The positive control consisted of cells treated with 100 μM erythromycin and negative control was consisted of 0.1% DMSO treated cells. LPS stock solution at 5 mg/mL was made by dissolving 10 mg of LPS powder into 2 mL of ddH2O and aliquoted to 100 μL per vial. Final concentration of LPS in the assay was […] by making 125-fold dilution of stock solution with medium.
Specific immunoreactivity for IL-8 in culture supernatants were measured by a commercially available ELISA kits (R&D Systems, Inc., Minneapolis, Minn.). Each sample was assayed in duplicates as recommended by the manufacture. The concentration of compounds of Examples inhibiting IL-8 production on BEAS-2B by 10% was estimated from a 4-parametric of the normalized dose response curve. (IC10)

SMILES: CC[C@H]1OC(=O)[C@H](C)[C@@H](O[C@H]2C[C@@](C)(OC)[C@@H](O)[C@H](C)O2)[C@H](C)[C@@H](O[C@@H]2O[C@H](C)C[C@H](N(C)C)[C@H]2O)[C@](C)(O)C[C@@H](C)C(=O)[C@H](C)[C@@H](O)[C@]1(C)O [Erythromycin, reference compound]
- inflammatory cell infiltration and enlargement of alveolus (lung histology) ([1]; 100 mg/kg orally twice per day, 12th to 24th week, vs CS group): significantly attenuated
- total cell count and number of macrophages and neutrophils in BALF ([1]; 100 mg/kg orally twice per day, compared to the smoking group): significantly lower
- airway resistance and total lung capacity ([1]; oral administration of 100 mg/kg, 24 weeks smoke exposure): reduced two parameters and partially recovered lung function
- LPS-induced IL-8 release [2]: significantly inhibited

Source: patent publication US20230068020A1, “MACROLIDE COMPOUND AND ITS USE OF TREATMENT CHRONIC RESPIRATORY DISEASE” (priority 2020, published 2023)
